# Measured values taken from patent US7871628B2, “Peptide mimics of conserved gonococcal epitopes and methods and compositions using them” (University of Massachusetts, priority 1999, dated 2011).
# pIC50: −log10 of the molar value. Several values for one entry are separate records, joined by “and”; a condition that tells them apart may be missing. Identical values can stand only once. Positions of bridges follow the written chain, without caps; N, C: chain ends. No end group written: not given here.
# Tests used:
# [1] = test system: mAb 2C7; test: Inhibition ELISA: synthetic peptide inhibiting mAb 2C7 binding to LOS
# Method: Peptides were diluted in blocking buffer (1% ovalbumin, 0.05% TWEEN-20™ (polysorbate 20), 0.5 M NaCl in PBS) to produce mixtures of varying concentrations (0.1, 0.5 and 1 mg/ml). […] Purified LOS prepared from gonococcal strain 15253 was used as a positive control. A non-reactive 15-mer peptide sequence generated by the above described random peptide library system was used as a negative control peptide [SEQ ID NO:9].
# [2] = biological target: mAb 2C7; test: Inhibition ELISA: linear peptide or MAPs inhibiting mAb 2C7 binding to LOS; details: for pIC50: mAb 2C7 stock 0.4 μg/ml, LOS of strain 15253 coated plates, read-out: half maximal inhibition (IC50) of mAb 2C7 binding to LOS
# Method: (§1) Solid phase ELISA was performed to assess the binding of mAb 2C7 to multiple antigen peptides. For direct ELISA, Immulon 1 plates were coated overnight with multiple antigen peptides (1 μg/well) and reacted with varying concentration of mAb 2C7. For inhibition ELISA, plates were coated with purified LOS prepared from N. gonorrhoeae strain 15253 (80 μg/ml) at 37° C. for 3 h. Peptides (linear or MAPs) were diluted in blocking buffer (1% ovalbumin, 0.05% TWEEN-20™ (polysorbate 20), 0.5 M NaCl in PBS) to produce mixtures of varying concentrations. 50 μl-aliquots from each concentration were incubated with 50 μl of mAb 2C7 (stock concentration 0.4 μg/ml diluted in blocking buffer) at 37° C. for 1 h, then 100 μl of mixtures were loaded into microtiter plate wells. […] Purified LOS prepared from gonococcal strain 15253 was used as a positive control in inhibition ELISA.
# [3] = test system: N. gonorrhoeae strain 15253; test: Complement-mediated bactericidal assay, strain 15253; assay type: cell-based, Neisseria gonorrhoeae
# Method: (§2) A bactericidal assay was performed using (A) mAb 2C7 mice against strain 15253 (positive control) and strain 15253 lgtG (negative control) (4). 25 μg/ml of mAb 2C7 (100 μl in 150 μl of total volume of reaction mixture) mediated 100% killing of strain 15253, and no killing of strain 15253 lgtG. […] FIG. 12 controls included the Complement source without antibody (137.9%±1.0% survival (no killing) for strain 15253, and 132.5%±14.3% survival (no killing) for the lgtG mutant of 15253).
# (§3) Depicted in FIG. 12 is a graph showing survival of N. gonorrhoeae strain 15253 and its lgtG mutant (2C7 epitope negative) (4) exposed to mouse immune serum (67% final mouse immune serum concentration by volume) plus added human complement obtained from normal human donors (17% final human complement concentration by volume).
# A standard bactericidal assay was performed to assess complement-mediated bactericidal activity in mouse sera (11). In this assay, mouse serum (67% final volume) (from various mice immunized or not as described below) was incubated with approximately 2.5×10^3 bacteria suspended in Morse A media (33) in the presence of human complement (17% final volume). The reaction mixture was then shaken continuously at 37° C. for 30 minutes. Aliquots of the reaction mixture were then inoculated onto chocolate agar plates at time 0 and 30 minutes. Survival was expressed as the percent increase in colonies on the plate at 30 minutes, compared to those on the plate at 0 minutes. Greater than 100% survival in the assay indicates growth during the 30-minute incubation period.
# [4] = test system: mAb 2C7; test: Direct ELISA: mAb 2C7 binding to multiple antigen peptides; details: plates coated with MAP 1 μg/well
# Method: as §1
# [5] = test system: IgG anti-LOS antibody; test: IgG anti-LOS antibody response in immunized mice; assay type: in vivo
# Method: FIGS. 8A-8D show octa-MAP1-induced IgG anti-LOS antibody responses in mice. (A) Eight mice received a dose of 50 μg of Octa-MAP1 emulsified in Freund's adjuvant on day 0 and again on day 21. (B) Four mice were immunized with purified LOS as a positive control. Mice were immunized with either Freund's adjuvant (C) or an unrelated octa-MAP control peptide (D) as negative controls.
# In FIG. 8(A), eight mice received a dose of 50 μg of Octa-MAP1 emulsified in Freund's adjuvant on day 0 and again on day 21. […] In these mice, IgG anti-LOS titers increased minimally after the first immunization and rose after boosting.
# IgG anti-LOS antibody responses for the responder mice only (from the experiments depicted in FIGS. 8A-8D) are shown in FIG. 10. Antibody response is defined as IgG anti-LOS (mean±SE) greater than 0.4 μg/ml (4 fold above baseline IgG anti-LOS levels).
# [6] = test system: IgM anti-LOS antibody; test: IgM anti-LOS antibody response in immunized mice; assay type: in vivo; details: responder mice only
# [7] = test system: N. gonorrhoeae strain 15253 lgtG; test: Complement-mediated bactericidal assay, strain 15253 lgtG mutant (2C7 epitope negative); assay type: cell-based, Neisseria gonorrhoeae; details: serum of single immunized mouse, 67% serum, 17% human complement
# Method: as §2, §3
# Strain 15253 lgtG contains a disrupted allele of lipooligosaccharide (LOS) glycosyl transferase G, which transfers glucose (via an α linkage) onto heptose-2 in the core of LOS (4). The disruption of the lgtG locus results in the loss of 2C7 epitope expression.
# A standard bactericidal assay was performed to assess complement-mediated bactericidal activity in mouse sera (11). […] Survival was expressed as the percent increase in colonies on the plate at 30 minutes, compared to those on the plate at 0 minutes. […]
substance,measurement,setting,value
"CKSNPIHIIKNRRNIPC (disulfide 1-17 (inferred)) [negative control peptide, reference compound]",inhibition of binding of 2C7 mAb to purified LOS coated plate (in words),"[1]; peptide 0.1, 0.5 and 1 mg/ml",did not inhibit binding
CGPIPVLDENGLFAPGPC [Octa-MAP1],pIC50,[2],6.64
same,killing of strain 15253,[3]; serum of immunized mouse containing 1.38 μg/ml anti-LOS antibodies,31%
same,killing of strain 15253,[3]; serum of immunized mouse containing 2.50 μg/ml anti-LOS antibodies,74%
same,killing of strain 15253,"[3]; serum of immunized mouse containing 5.05 μg/ml IgG anti-LOS, 67% serum, 17% human complement, 30 min",92%
same,survival of strain 15253,"[3]; serum of single immunized mouse (pooled bleeds weeks 7-11), 67% serum, 17% human complement, 30 min",8%
same,binding to mAb 2C7 in direct ELISA (in words),[4],strong binding
same,IgG anti-LOS antibody concentration in serum of immunized mouse,"[5]; individual mice, pooled bleeds weeks 7-11",5.05 µg/mL and 1.38 µg/mL and 2.50 µg/mL
same,mice with induced IgG anti-LOS antibody response,"[5]; mice immunized day 0 and day 21, Octa-MAP1 50 μg in Freund's adjuvant",three of the eight
same,IgG anti-LOS antibody levels compared with negative control antigens,"[5]; responder mice, 7 and 10 weeks after primary immunization",higher (p<0.001)
same,time of peak IgG anti-LOS response,"[5]; three responder mice, boost at week 3",7 week
same,IgM anti-LOS antibody response (in words),[6],failed to respond with IgM anti-LOS levels higher than mice immunized with negative control antigens
same,killing/survival of strain 15253 lgtG (in words),[7],survived fully
"control MAP: control multiple antigen peptide(s), each antigen SEQ ID NO: 12 (CGPEARDEGTITLERGPC; cysteine pairing not given here; also: multiple antigen peptide on lysine core) [reference compound]",inhibition of mAb 2C7 binding to LOS (in words),[2],no significant inhibition
same,binding to mAb 2C7 in direct ELISA (in words),[4],no binding
"unrelated octa-MAP control peptide: unrelated octa-MAP negative control, each antigen SEQ ID NO: 12 (CGPEARDEGTITLERGPC; cysteine pairing not given here; also: octa-MAP on lysine core) [reference compound]",killing of strain 15253 (in words),"[3]; serum of single immunized mouse, 67% serum, 17% human complement",did not kill either strain
same,IgG anti-LOS response (in words),[5]; immunized mice,weak or no IgG anti-LOS responses
same,killing/survival of strain 15253 lgtG (in words),[7],did not kill either strain
linear PEP1: linear PEP1 peptide compared with the MAPs in inhibition ELISA (IPVLDENGLFAP),pIC50,[2],4.26
IPVLDENGLFAP [PEP1],percentage inhibition of mAb 2C7 binding to LOS,[1]; peptide 0.1 mg/ml,17%
same,percentage inhibition of mAb 2C7 binding to LOS,[1]; peptide 0.5 mg/ml,77%
same,percentage inhibition of mAb 2C7 binding to LOS,[1]; peptide 1.0 mg/ml,91%
CGPIPVLDENGLFAPGPC [Tetra-MAP1],pIC50,[2],5.90
same,binding to mAb 2C7 in direct ELISA (in words),[4],strong binding
